Source: patent US20040063662A1, “Selenophene anti-tumor agents” (priority 1996, published 2004)

Legend:
[1] = system: CCRF-CEM; experiment: NCI human tumor cell panel: CCRF-CEM (Leukemia); type: cell-based; conditions: Leukemia
[2] = system: SF-295; experiment: NCI human tumor cell panel: SF-295 (CNS Cancer); type: cell-based; conditions: SF-295, CNS Cancer
[3] = system: MCF7/ADR-RES; experiment: NCI human tumor cell panel: MCF7/ADR-RES (Breast Cancer); type: cell-based; conditions: Breast Cancer
[4] = system: NCI-H460; experiment: NCI human tumor cell panel: NCI-H460 (Non-Small Cell Lung Cancer); type: cell-based; conditions: NCI-H460, Non-Small Cell Lung Cancer
[5] = system: SR; experiment: NCI human tumor cell panel: SR (Leukemia); type: cell-based; conditions: Leukemia
[6] = system: HS 578T; experiment: NCI human tumor cell panel: HS 578T (Breast Cancer); type: cell-based; conditions: Breast Cancer
[7] = system: M14; experiment: NCI human tumor cell panel: M14 (Melanoma); type: cell-based; conditions: M14, Melanoma
[8] = system: SNB-75; experiment: NCI human tumor cell panel: SNB-75 (CNS Cancer); type: cell-based; conditions: SNB-75, CNS Cancer
[9] = system: OVCAR-5; experiment: NCI human tumor cell panel: OVCAR-5 (Ovarian Cancer); type: cell-based; conditions: OVCAR-5, Ovarian Cancer
[10] = system: HOP-92; experiment: NCI human tumor cell panel: HOP-92 (Non-Small Cell Lung Cancer)
[11] = system: SK-MEL-5; experiment: NCI human tumor cell panel: SK-MEL-5 (Melanoma); type: cell-based; conditions: SK-MEL-5, Melanoma
[12] = system: UO-31; experiment: NCI human tumor cell panel: UO-31 (Renal Cancer); type: cell-based; conditions: UO-31, Renal Cancer
[13] = system: MDA-MB-435; experiment: NCI human tumor cell panel: MDA-MB-435 (Breast Cancer); type: cell-based; conditions: MDA-MB-435, Breast Cancer
[14] = system: A498; experiment: NCI human tumor cell panel: A498 (Renal Cancer); type: cell-based; conditions: A498, Renal Cancer
[15] = system: BT-549; experiment: NCI human tumor cell panel: BT-549 (Breast Cancer); type: cell-based; conditions: BT-549, Breast Cancer
[16] = system: DU-145; experiment: NCI human tumor cell panel: DU-145 (Prostate Cancer); type: cell-based; conditions: DU-145, Prostate Cancer
[17] = system: HOP-62; experiment: NCI human tumor cell panel: HOP-62 (Non-Small Cell Lung Cancer); type: cell-based; conditions: HOP-62, Non-Small Cell Lung Cancer
[18] = system: NCI-H23; experiment: NCI human tumor cell panel: NCI-H23 (Non-Small Cell Lung Cancer); type: cell-based; conditions: NCI-H23, Non-Small Cell Lung Cancer
[19] = system: SN12C; experiment: NCI human tumor cell panel: SN12C (Renal Cancer); type: cell-based; conditions: Renal Cancer
[20] = system: OVCAR-4; experiment: NCI human tumor cell panel: OVCAR-4 (Ovarian Cancer); type: cell-based; conditions: OVCAR-4, Ovarian Cancer
[21] = system: SK-MEL-2; experiment: NCI human tumor cell panel: SK-MEL-2 (Melanoma); type: cell-based; conditions: SK-MEL-2, Melanoma
[22] = system: MDA-N; experiment: NCI human tumor cell panel: MDA-N (Breast Cancer); type: cell-based; conditions: Breast Cancer
[23] = system: UACC-257; experiment: NCI human tumor cell panel: UACC-257 (Melanoma); type: cell-based; conditions: UACC-257, Melanoma
[24] = system: RPMI-8226; experiment: NCI human tumor cell panel: RPMI-8226 (Leukemia); type: cell-based; conditions: RPMI-8226, Leukemia
[25] = system: LOX IMVI; experiment: NCI human tumor cell panel: LOX IMVI (Melanoma); type: cell-based; conditions: Melanoma
[26] = system: MCF7; experiment: NCI human tumor cell panel: MCF7 (Breast Cancer); type: cell-based; conditions: MCF7, Breast Cancer
[27] = system: SF-539; experiment: NCI human tumor cell panel: SF-539 (CNS Cancer); type: cell-based; conditions: SF-539, CNS Cancer
[28] = system: 786-0; experiment: NCI human tumor cell panel: 786-0 (Renal Cancer); type: cell-based; conditions: 786-0, Renal Cancer
[29] = system: SW-620; experiment: NCI human tumor cell panel: SW-620 (Colon Cancer); type: cell-based; conditions: SW-620, Colon Cancer
[30] = system: UACC-62; experiment: NCI human tumor cell panel: UACC-62 (Melanoma); type: cell-based; conditions: UACC-62, Melanoma
[31] = system: IGROV1; experiment: NCI human tumor cell panel: IGROV1 (Ovarian Cancer); type: cell-based; conditions: IGROV-1, IGROV1, Ovarian Cancer
[32] = system: OVCAR-8; experiment: NCI human tumor cell panel: OVCAR-8 (Ovarian Cancer); type: cell-based; conditions: OVCAR-8, Ovarian Cancer
[33] = read-out: Log10 GI50 (converted)
[34] = read-out: Log10 TGI (converted)

SMILES: OCc1ccc(-c2ccc(-c3cccs3)[se]2)s1 [NSC 675344]
- GI50 [1, 33]: > 100 µM
- IC (TGI) [1, 34]: > 100 µM
- GI50 [2, 33]: 26.9 µM
- IC (TGI) [2, 34]: > 100 µM
- GI50 [3, 33]: > 100 µM
- IC (TGI) [3, 34]: > 100 µM
- GI50 [4, 33]: < 0.01 µM
- IC (TGI) [4, 34]: > 100 µM
- GI50 [5, 33]: > 100 µM
- IC (TGI) [5, 34]: > 100 µM
- GI50 [6, 33]: 53.7 µM
- IC (TGI) [6, 34]: > 100 µM
- GI50 [7, 33]: > 100 µM
- IC (TGI) [7, 34]: > 100 µM
- GI50 [8, 33]: 16.6 µM
- IC (TGI) [8, 34]: 49 µM
- GI50 [9, 33]: < 0.01 µM
- IC (TGI) [9, 34]: 0.0871 µM
- GI50 ([10]; HOP-92, read-out: Log10 GI50 (converted)): 27.5 µM
- IC (TGI) ([10]; HOP-92, read-out: Log10 TGI): 89.1 µM
- GI50 [11, 33]: > 100 µM
- IC (TGI) [11, 34]: > 100 µM
- GI50 [12, 33]: > 100 µM
- IC (TGI) [12, 34]: > 100 µM
- GI50 [13, 33]: > 100 µM
- IC (TGI) [13, 34]: > 100 µM
- GI50 [14, 33]: < 0.01 µM
- IC (TGI) [14, 34]: 0.0182 µM
- GI50 [15, 33]: 42.7 µM
- IC (TGI) [15, 34]: > 100 µM
- GI50 [16, 33]: 36.3 µM
- IC (TGI) [16, 34]: > 100 µM
- GI50 [17, 33]: 34.7 µM
- IC (TGI) [17, 34]: > 100 µM
- GI50 [18, 33]: 20.4 µM
- IC (TGI) [18, 34]: > 100 µM
- GI50 [19, 33]: > 100 µM
- IC (TGI) [19, 34]: > 100 µM
- GI50 [20, 33]: 0.0417 µM
- IC (TGI) [20, 34]: > 100 µM
- GI50 [21, 33]: > 100 µM
- IC (TGI) [21, 34]: > 100 µM
- GI50 [22, 33]: > 100 µM
- IC (TGI) [22, 34]: > 100 µM
- GI50 [23, 33]: < 0.01 µM
- IC (TGI) [23, 34]: 0.0186 µM
- GI50 [24, 33]: > 100 µM
- IC (TGI) ([24]; read-out: Log10 TGI): > 100 µM
- GI50 [25, 33]: 34.7 µM
- IC (TGI) [25, 34]: > 100 µM
- GI50 [26, 33]: 0.126 µM
- IC (TGI) [26, 34]: > 100 µM
- GI50 [27, 33]: > 100 µM
- IC (TGI) [27, 34]: > 100 µM
- GI50 [28, 33]: 12.3 µM
- IC (TGI) [28, 34]: 67.6 µM
- GI50 [29, 33]: > 100 µM
- IC (TGI) [29, 34]: > 100 µM
- GI50 [30, 33]: < 0.01 µM
- IC (TGI) [30, 34]: 0.0141 µM
- GI50 [31, 33]: 0.0123 µM
- IC (TGI) [31, 34]: 0.0427 µM
- GI50 [32, 33]: > 100 µM
- IC (TGI) [32, 34]: > 100 µM
